# In patent publication US20260007612A1, “Novel Ionizable Cationic Lipids” (Vivasor, Inc., priority 2022, published 2026):
# Tested on: female Balb/c mice
# Assay: In vivo efficacy of SARS-CoV-2 Spike mRNA in lipid nanoparticle formulation: serum anti-Spike IgG by ELISA
# Settings: FIGS. 1C-D, intramuscular, 28 days following injection
row,SMILES,amount of anti-Spike antibody (of SARS-CoV-2) produced in mice
1,CCCCCCCCCC1(CCCCCC)OCC(CCCCN(CCCCO)CCCCC2COC(CCCCCC)(CCCCCCCCC)O2)O1 (stereo not shown) [KT-001],largest amounts

# Tested on: not listed separately
# Assay: Lipid nanoparticle characterization (size, PDI, zeta potential, encapsulation efficiency)
# Format: physicochemical
# Settings: Fresh samples; LNP of named lipid:DSPC:Cholesterol:GM020=50:10:38.5:1.5 (DS-001 25:10:38.5:1.5); 250 μg mRNA
# Description: Lipid nanoparticles were prepared with the following compositions: • ALC-0315:DSPC:Cholesterol:GM020=50:10:38.5:1.5 (and buffer) (positive control) • TU-001:DSPC:Cholesterol:GM020=50:10:38.5:1.5 (and buffer) • TU-002:DSPC:Cholesterol:GM020=50:10:38.5:1.5 (and buffer) • TU-003:DSPC:Cholesterol:GM020=50:10:38.5:1.5 (and buffer) • TU-004:DSPC:Cholesterol:GM020=50:10:38.5:1.5 (and buffer) • TU-005:DSPC:Cholesterol:GM020=50:10:38.5:1.5 (and buffer) • TU-006:DSPC:Cholesterol:GM020=50:10:38.5:1.5 (and buffer) • TU-007:DSPC:Cholesterol:GM020=50:10:38.5:1.5 (and buffer) • TU-008:DSPC:Cholesterol:GM020=50:10:38.5:1.5 (and buffer) • TU-009:DSPC:Cholesterol:GM020=50:10:38.5:1.5 (and buffer) • BAE-001:DSPC:Cholesterol:GM020=50:10:38.5:1.5 (and buffer) • BAA-001:DSPC:Cholesterol:GM020=50:10:38.5:1.5 (and buffer) • DS-001:DSPC:Cholesterol:GM020=25:10:38.5:1.5 (and buffer) • KT-001:DSPC:Cholesterol:GM020=50:10:38.5:1.5 (and buffer) • Where buffer is water, Trehalose, Tris Base, sodium chloride. DSPC is 1,2-distearoyl-sn-glycero-3-phosphocholine. GM020 is DMG-PEG (1,2-Dimyristoyl-rac-glycero-3-methylpolyoxyethylene).
# Table 1 summarizes the lipid nanoparticle characterization with respect to various parameters including nanoparticle size (Z avg), polydispersity index (PDI), charge (Zeta potential), encapsulation efficiency and yield.
SMILES,Encapsulation Efficiency,PDI,Z Avg.,Zeta Potential
"CCCCCCCCC(CCCCCC)C(=O)OCCCCCCN(CCCCO)CCCCCCOC(=O)C(CCCCCC)CCCCCCCC (stereo not shown) [ALC-0315, reference compound]",83.16%,0.223,78.67 nm,−4.74 mV
CCCCCCCCC(CCCCCC)C(=O)OCCCCCCN(CCCCO)CCC(=O)OCCCCOC(=O)CCN(CCCCO)CCCCCCOC(=O)C(CCCCCC)CCCCCCCC (stereo not shown) [BAE-001],83.32%,0.141,111.7 nm,−0.28 mV
CCCCCCCCC(CCCCCC)C(=O)OCCCCCCN(CCCCCCOC(=O)C(CCCCCC)CCCCCCCC)CCCCNC(=O)OCCSSCCOC(=O)NCCCCN(CCCCCCOC(=O)C(CCCCCC)CCCCCCCC)CCCCCCOC(=O)C(CCCCCC)CCCCCCCC (stereo not shown) [DS-001],84.50%,0.12,63.0 nm,−3.74 mV
CCCCCCCCCC1(CCCCCC)OCC(CCCCN(CCCCO)CCCCC2COC(CCCCCC)(CCCCCCCCC)O2)O1 (stereo not shown) [KT-001],80.60%,0.08,84.7 nm,−3.30 mV
CCCCCCCCC(CCCCCC)C(=O)OCCCN(CCCOC(=O)C(CCCCCC)CCCCCCCC)C(=S)NCCCN1CCOCC1 (stereo not shown) [TU-002],80.64%,0.133,76.99 nm,−2.55 mV
CCCCCCCCC(CCCCCC)C(=O)OCCCN(CCCOC(=O)C(CCCCCC)CCCCCCCC)C(=S)NCCCN1CCCCC1C (stereo not shown) [TU-003],90.47%,0.23,73.29 nm,−0.56 mV
CCCCCCCCC(CCCCCC)C(=O)OCCCN(CCCOC(=O)C(CCCCCC)CCCCCCCC)C(=S)NCCCN1CCN(C)CC1 (stereo not shown) [TU-004],72.53%,0.24,79.77 nm,−1.27 mV
CCCCCCCCC(CCCCCC)C(=O)OCCCN(CCCOC(=O)C(CCCCCC)CCCCCCCC)C(=S)NCCCN (stereo not shown) [TU-005],97.66%,0.282,176.9 nm,−0.842 mV
CCCCCCCCC(CCCCCC)C(=O)OCCCN(CCCOC(=O)C(CCCCCC)CCCCCCCC)C(=S)NCCCN(CC)CC (stereo not shown) [TU-006],81.48%,0.278,68.84 nm,−0.642 mV
CCCCCCCCC(CCCCCC)C(=O)OCCCN(CCCOC(=O)C(CCCCCC)CCCCCCCC)C(=S)NCCCN(CCC)CCC (stereo not shown) [TU-007],78.96%,0.156,63.30 nm,−2.68 mV
CCCCCCCCC(CCCCCC)C(=O)OCCCN(CCCOC(=O)C(CCCCCC)CCCCCCCC)C(=S)NCCCNC(C)C (stereo not shown) [TU-008],97.75%,0.253,64.64 nm,−1.07 mV
CCCCCCCCC(CCCCCC)C(=O)OCCCN(CCCOC(=O)C(CCCCCC)CCCCCCCC)C(=S)NCCCN(CCCC)CCCC (stereo not shown) [TU-009],80.76%,0.188,64.82 nm,−4.40 mV
